Data on two compounds can be found in paper PMC6920997, “Total Phenolic and Flavonoid Content and Biological Activities of Extracts and Isolated Compounds of Cytisus villosus Pourr” (Biomolecules, 2019).

Molecules are shown by their SMILES. Converted amounts (≈) assume the structure as drawn.

One series addresses μ opioid receptor (Homo sapiens, UniProt P35372). Type of series: binding.
Another series deals with NF-κB. The experiment in a line: Reporter gene assay for the inhibition of NF-κB. Type of series: cell-based. The settings on record: PMA-treated cells, luciferase reporter; NA = no activity at 25 µg/mL (pure compounds) or 100 µg/mL (extracts); read-out: Inhibition of NF-kB IC50. As to the method:
Reporter gene assay for the inhibition of NF-κB Activity was performed as described earlier. In brief, cells transfected with NF-κB luciferase plasmid construct were plated in 96-well plates at a density of 1.25 × 10^5 cells/well. After 24 h, cells were treated with the test compounds and, after incubating for 30 min, phorbol 12-myristate 13-acetate (PMA) (Sigma-Aldrich, Burlington MA, USA) (70 ng/mL) was added and further incubated for 6−8 h. Luciferase activity was measured as described above. Percent decrease in luciferase activity was calculated relative to the vehicle control. Parthenolide (Sigma-Aldrich, Burlington MA, USA) was used as a positive control.

In another series the target is δ opioid receptor (Homo sapiens, UniProt P41143). The experiment in a line: Radioligand displacement δ opioid receptor. Type of series: binding.
δ opioid receptor, sequence (P41143 whole entry): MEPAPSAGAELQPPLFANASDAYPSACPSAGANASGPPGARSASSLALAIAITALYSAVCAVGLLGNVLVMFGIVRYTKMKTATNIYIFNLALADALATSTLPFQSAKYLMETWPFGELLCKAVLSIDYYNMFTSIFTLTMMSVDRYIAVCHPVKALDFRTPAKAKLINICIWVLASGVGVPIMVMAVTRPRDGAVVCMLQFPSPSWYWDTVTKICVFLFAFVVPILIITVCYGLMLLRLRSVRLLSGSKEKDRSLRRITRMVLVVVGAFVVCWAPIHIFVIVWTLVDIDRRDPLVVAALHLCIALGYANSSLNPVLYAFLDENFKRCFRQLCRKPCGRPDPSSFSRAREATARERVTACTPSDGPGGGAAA
The next series deals with Escherichia coli. The series can be described thus: Antibacterial assay E. coli. Type of series: cell-based. The settings on record: pure compounds. As to the method: (§1) Extracts and pure compounds were tested for their antimicrobial activity against Staphylococcus aureus, methicillin-resistant S. aureus (MRSA), Escherichia coli, Pseudomonas aeruginosa, and Mycobacterium intracellulare. The antifungal activities were evaluated against a panel of pathogenic fungi, including Candida albicans, C. glabrata, C. krusei, Aspergillus fumigatus, and Cryptococcus neoformans, associated with opportunistic infections.

For a further series, the target named is κ opioid receptor (Homo sapiens, UniProt P41145). Type of series: binding.
κ opioid receptor, sequence (P41145 whole entry): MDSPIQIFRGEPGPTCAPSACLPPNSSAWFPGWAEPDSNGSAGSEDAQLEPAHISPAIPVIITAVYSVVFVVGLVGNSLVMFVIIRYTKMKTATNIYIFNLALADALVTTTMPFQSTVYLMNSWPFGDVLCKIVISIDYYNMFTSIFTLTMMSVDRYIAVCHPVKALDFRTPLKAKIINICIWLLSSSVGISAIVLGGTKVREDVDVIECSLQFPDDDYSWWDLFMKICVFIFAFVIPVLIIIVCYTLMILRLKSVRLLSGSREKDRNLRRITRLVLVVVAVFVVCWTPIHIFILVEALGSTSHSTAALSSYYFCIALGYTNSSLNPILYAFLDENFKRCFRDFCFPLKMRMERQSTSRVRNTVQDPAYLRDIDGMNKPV
Another series relates to Candida albicans. The series can be described thus: Antifungal assay C. albicans. The settings on record: pure compounds. Type of series: cell-based. On the procedure: as §1
For a further series, the system named is P. falciparum (D6 Clone). The series can be described thus: Antimalarial assay, chloroquine-sensitive D6 clone. Type of series: cell-based, Plasmodium falciparum. To be noted: selectivity index = IC50 for cytotoxicity/IC50 for antimalarial activity. From the text: (§2) The in vitro antileishmanial and antitrypanosomal assays were done on cell cultures of L. donovani promastigotes, axenic amastigotes, THP1-amastigotes, and Trypanosoma brucei trypomastigotes by Alamar Blue assays. The conditions for seeding the THP1 cells, exposure to the test samples, and evaluation of cytotoxicity were the same as described in parasite-rescue and transformation assay. IC50 and IC90 values were computed from the dose response curves using XLfit software (XLfit 5.3.1, IDBS analytical, Boston MA, USA). DFMO (difluoromethylornithine) was used as the positive control. The antiprotozoal activity of C. villosus extracts and isolated compounds were evaluated in vitro against L. donovani promastigotes, axenic amastigotes, and intracellular amastigotes in THP1 cells. The extracts and some isolated compounds were also evaluated against T. brucei trypomastigote forms. All the extracts and compounds were simultaneously tested against THP1 cell for determination of general cytotoxicity. The extracts and isolated compounds were also evaluated for their antimalarial activity against chloroquine-sensitive (D6, Sierra Leone) and chloroquine-resistant strains (W2, Indochina) strains of Plasmodium falciparum. Furthermore, they were tested for cytotoxicity against the Vero cell line.

In a further series the test system is Cryptococcus neoformans. The series can be described thus: Antifungal assay C. neoformans. The settings on record: pure compounds. Type of series: cell-based. On the procedure:
as §1

A further series has as its system Staphylococcus aureus. The experiment in a line: Antibacterial assay S. aureus. Format: cell-based. The settings on record: pure compounds. As to the method:
as §1

The test system of another series is Pseudomonas aeruginosa. The experiment in a line: Antibacterial assay P. aeruginosa. Format: cell-based. The settings on record: pure compounds. As to the method: as §1
A further series concerns P. falciparum (W2 Clone). The experiment in a line: Antimalarial assay, chloroquine-resistant W2 clone. Format: cell-based, Plasmodium falciparum. The settings on record: selectivity index = IC50 for cytotoxicity/IC50 for antimalarial activity.
Excerpt: as §2

The test system of the next series is iNOS. The series can be described thus: Inhibition of iNOS (intracellular NO production) in RAW 264.7 macrophages. Type of series: cell-based. To be noted: Mus musculus, RAW264.7; RAW 264.7 cells; NA = no activity at 25 µg/mL (pure compounds) or 100 µg/mL (extracts). On the procedure:
The extracts and isolated compounds of C. villosus were evaluated in terms of their interaction with cellular targets related to inflammation and metabolic disorders, such as iNOS and NF-κB. The inhibition of intracellular NO production as a result of iNOS activity was assayed in mouse macrophages (RAW 264.7cells). Cytotoxicity of test samples to macrophages was also determined in parallel to check if the inhibition of iNOS was due to cytotoxic effects.

Series [1] can be described thus: Cytotoxicity against Vero cell line (antimalarial counterscreen). Format: cell-based. To be noted: African green monkey.
Excerpt: as §2

Series [2] is described as follows: Cytotoxicity assay (neutral red) SK-OV-3. Format: cell-based. To be noted: human, SK-OV-3 cells, NA = No activity at 100 μM. On the procedure:
(§3) Each assay was performed in 96-well tissue culture-treated microplates. […] All cell lines were obtained from the American Type Culture Collection (ATCC, Rockville, MD, USA). Each assay was performed in 96-well tissue culture-treated microplates. Cells were seeded at a density of 25,000 cells/well and incubated for 24 h. Samples at different concentrations were added and cells were again incubated for 48 h. At the end of incubation, the cell viability was determined using neutral red dye according to a modification of the procedure of Borenfreund et al.. IC50 values were determined from dose−response curves of percent growth inhibition against test concentrations. Doxorubicin was used as a positive control, while DMSO was used as the negative (vehicle) control.

The nature of series [3]: Cytotoxicity assay (neutral red) LLC-PK1. Type of series: cell-based. To be noted: pig, LLC-PK1 cells (noncancerous kidney cells), NC = Not cytotoxic. On the procedure:
as §3

The nature of series [4]: Cytotoxicity assay (neutral red) BT-549. Format: cell-based. To be noted: human, BT-549 cells, NA = No activity at 100 μM. As to the method: as §3
Series [5] is described as follows: Cytotoxicity assay (neutral red) KB. Type of series: cell-based. To be noted: human, KB cells, NA = No activity at 100 μM. As to the method: as §3
The nature of series [6]: Cytotoxicity assay (neutral red) SK-MEL. Type of series: cell-based. To be noted: human, SK-MEL cells, NA = No activity at 100 μM. On the procedure: as §3

μ opioid receptor, sequence (P35372 whole entry): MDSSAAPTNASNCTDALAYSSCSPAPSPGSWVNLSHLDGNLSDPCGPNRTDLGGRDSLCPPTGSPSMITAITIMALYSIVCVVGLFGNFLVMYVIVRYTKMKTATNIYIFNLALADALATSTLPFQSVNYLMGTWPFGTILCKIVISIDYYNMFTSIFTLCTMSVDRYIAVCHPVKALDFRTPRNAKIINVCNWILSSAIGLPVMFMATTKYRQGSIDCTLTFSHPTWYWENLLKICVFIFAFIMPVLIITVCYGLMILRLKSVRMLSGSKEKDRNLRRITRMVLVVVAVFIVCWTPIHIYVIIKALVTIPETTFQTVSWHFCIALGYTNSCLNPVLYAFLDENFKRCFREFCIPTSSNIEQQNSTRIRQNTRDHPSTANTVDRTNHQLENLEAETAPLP

With `O=c1cc(-c2ccccc2)oc2cc(O)cc(O)c12` [Compound 2, chrysin], the “Opioid Receptors (%) μ radioligand displacement” value on μ opioid receptor amounted to 12.2%. Further, the IC50 in the series on NF-κB was 38 µg/mL (≈ 149 µM); with Escherichia coli, more than 20 µg/mL; in the series with Candida albicans, more than 20 µg/mL; with Cryptococcus neoformans, more than 20 µg/mL; with Staphylococcus aureus, more than 20 µg/mL; with Pseudomonas aeruginosa it was more than 20 µg/mL. For the same compound, the IC50 was more than 25 µg/mL in the series on iNOS and more than 4.76 µg/mL in series [1]. Further, the “Opioid Receptors (%) δ radioligand displacement” value at δ opioid receptor is reported as 8.7%. Besides, the “Opioid Receptors (%) κ radioligand displacement” value at κ opioid receptor was 12.8%. For the same compound, the “SI (first SI column of Table 7, presumably D6)” value in the series on P. falciparum (D6 Clone) is reported as 1. In addition, the “SI (second SI column of Table 7, presumably W2)” value with P. falciparum (W2 Clone) came out at 1.

In the case of `COc1cccc2c1C(=O)c1c(O)c3c(c(O)c1C2=O)C[C@@](O)(C(=O)CO)C[C@@H]3O[C@H]1C[C@H](N)[C@H](O)[C@H](C)O1` [doxorubicin, Doxorubicin], the 50% inhibitory concentration (IC50) at 48 h worked out at 2 µg/mL (≈ 3.68 µM) in series [2]; 1.2 µg/mL (≈ 2.21 µM) in [3]; 0.9 µg/mL (≈ 1.66 µM) in series [4]; 1.3 µg/mL (≈ 2.39 µM) in series [5]; 0.8 µg/mL (≈ 1.47 µM) in series [6].
